US20150174068A1, “Apparatus, Composition, and Related Methods for Transdermal Delivery of Active Ingredients” (CURE IP HOLDINGS, LLC, priority 2011, published 2015)
Like-named read-outs stand apart in the source and are kept apart here.

How the values were obtained:
[1] = human, pH 7.4
[2] = In vitro transdermal caffeine delivery, Franz diffusion cells, excised human epidermis; type: in vitro ADME; conditions: after application of the formulations
Procedure: Pre-clinical selection of topical formulations was performed using an in-vitro penetration study through human epidermal membrane, which assesses the percutaneous absorption profiles of applied drugs. The method is based on the use of excised human skin as a membrane in a diffusion system that simulates in-vivo skin conditions. By analyzing the amount of the drug reaching the receptor solution, the penetration profile of the drug in the skin can be assessed and used as a tool to determine the feasibility of formulations for subsequent development. Embodiments of the transdermal compositions were tested in an in vitro penetration study through human epidermis as a testing membrane to simulate topical drug delivery. In particular, excised human epidermis was utilized to assess the penetration profiles of caffeine. Two transdermal compositions were tested: Formulation A and Formulation B. […] Formulation A was tested with and without occlusion. Parafilm was applied for occlusion tests, and the samples were kept under occlusion during the period of the study. […] The materials for the assays were: […] Formulation A; and Formulation B. […] Therefore, each formulation contained radioactive caffeine of 50 μCi/mL. The mixtures were stored at a 4° C. refrigerator after preparation. […] The amount of radioactive caffeine was analyzed from the receptor fluid samples. […]

amount of active ingredient that penetrated the epidermis ([1]; 5 %) | SMILES | amount of active ingredient that penetrated the epidermis [1] | time to penetration of caffeine through the epidermis into the receptor chamber [2] [min]
 | CC(=O)O[C@H]1C(=O)[C@@]2(C)[C@H]([C@H](OC(=O)c3ccccc3)[C@]3(O)C[C@H](OC(=O)[C@H](O)[C@@H](NC(=O)c4ccccc4)c4ccccc4)C(C)=C1C3(C)C)[C@]1(OC(C)=O)CO[C@@H]1C[C@@H]2O [Paclitaxel, paclitaxel] | approximately 0.5% | 
Greater than 2% | C[C@]12CC[C@@H]3c4ccc(O)cc4CC[C@H]3[C@@H]1CC[C@@H]2O [estradiol] |  | 
Approximately 1% | Nc1nc2ncc(CNc3ccc(C(=O)N[C@@H](CCC(=O)O)C(=O)O)cc3)nc2c(=O)[nH]1 [folic acid] |  | 

SMILES | amount of active ingredient that penetrated the epidermis ([1]; 5 %) | amount of active ingredient that penetrated the epidermis [1] | time to penetration of caffeine through the epidermis into the receptor chamber [2] [min]
Cn1c(=O)c2c(ncn2C)n(C)c1=O [caffeine] | Greater than 3% | greater than 1% | ≤ 3
